Experiment: Measurement of entrapment efficiency (ultracentrifugation of liposomes, HPLC determination of Vitamin A in both phases)
Type: physicochemical
Conditions: liposomes from gelified phospholipid /Vitamin A complex (Example 1A) plus physiologic solution, 325 nm
Method: Measurement of entrapment efficiency.
A gelified phospholipid /Vitamin A complex was prepared according to the procedure described in Example 1A.
Liposomes were then obtained by adding a physiologic solution to the complex and subsequent stirring of the mixture.
The obtained liposomes have been subjected to ultracentrifugation in order to separate the liposome phase from the water phase. In both phases Vitamin A was determined as follows.
Phospholipid /vitamin A pellet resulting from the ultracentrifugation was dissolved in hexane, filtered under vacuum (0.2 .10^5 Pa) and determined by HPLC (high performance liquid chromatography) using two different HPLC columns: • 1) Column: Chromsep Nucleosil C18 100 mm x 3 ID Eluent: methanol Flow: 1 ml/min. Detecting wl: 325 nm • 2) Column: Pertsil 10 ODS Eluent: Methanol/water (90/10) Flow: 1ml/min. Detecting wl: 325 nm
The water phase coming from the ultracentrifugation was analyzed for its vitamin A content using the same HPLC procedure and columns.

Vitamin A detected in the liposome phase (pellet after ultracentrifugation dissolved in hexane): almost all
Vitamin A detected in the aqueous phase (water phase after ultracentrifugation): No Vitamin A was detected
Compound: CC(=O)OC/C=C(C)/C=C/C=C(C)/C=C/C1=C(C)CCCC1(C)C [Vitamin A, Vitamin A acetate]

Source: patent EP0678295B1, “Manufacturing process of phospholipideactive principle complexes useful for the liposome preparation” (Citernesi, Ugo, priority 1994, dated 1995)
